Assay results published in US4302578A, “Cephalosporin antibiotics” (priority 1971, dated 1981).
“Also recorded” adds a separate entry of the source. Counter-ions that a name gives are not always drawn. Like-named read-outs stand apart in the source and are kept apart here.

Assays:
[1] = toxicity for uninfected mice; details: mouse, in vivo
From the text: (§1) The method employed in this characterization is as follows: Female white Swiss mice, average weight 20-23 grams, were infected intraperitoneally with 3-20 times the number of organisms calculated to be lethal for 50% of the infected control animals (3-20 LD50 doses). At the time of infection and again six hours later, therapy was given by the designated route. Controls of the virulence of the culture and the toxicity of the antibiotic for uninfected mice were included in the tests. Seven days after infection the test was considered complete and the amount of the antibiotic (I) that would be required to protect 50% of the infected and treated animals was calculated by the method of Knudsen and Curtis; J. Amer. Stat. Assoc. Vol. 42: page 282 (1947).

[2] = test system: gram-negative and gram-positive bacteria; test: in vitro antibacterial activity (summary statements); format: cell-based
[3] = test system: gram-negative and gram-positive infections; test: in vivo protection against infection (summary statements); set-up: species or system mice; details: for protection against infections, oral: given orally; for in vivo protection / activity: mouse; for protection: 4000 mg. × dose, subcutaneous, infection not marked
From the text: as §1
The method employed in these studies is the same as described above with regard to the in vivo characterization of 810A.

cephalosporinases = test: resistance to cephalosporinases / penicillinase; format: biochemical
certain microorganisms = test: resistance to bacterial inactivation / enzymatic degradation (summary statements); format: biochemical
From the text: Bacterial Inactivation With 810A: An in vitro study was designed to determine the resistance of Antibiotic 810A, to bacterial inactivation as compared with cephalosporin C, cephaloridine and cephalothin.

Vibrio percolans MB-1272 = test: disc-plate bioassay; details: for zone of inhibition at 100 µg/mL / zone of inhibition at 5 µg/mL: Comamonas terrigena
Proteus morganii 356 [4] = test: mouse protection test, clinical isolate resistant to cephalosporins; format: in vivo, mice; details: Subcutaneous Route × 2 Doses (average of Two Trials)
From the text: as §1
Administration was by subcutaneous injection. At the completion of the test period, usually seven days after administration, the amount of product required to protect 50% of the mice (ED50) from this otherwise fatal injection was calculated:
In addition to the aforementioned in vivo trails of the product, a clinical isolate of Proteus morganii 356 which is resistant to cephalosporins and capable of degrading cephalosporin C, was employed in a mouse protection test performed in the same manner as reported above.

[5] = test system: Aerobacter cloacae (MB-2646); test: bacterial inactivation, cell-free extract; format: biochemical
Experimental: The ability of Antibiotic 810A and cephalosporin C to withstand the degradative effect of the culture Aerobacter cloacae (MB-2646) was also determined. This culture is gram-negative and resistant to cephalosporin C. […] The source of the inactivating substance is a 1:160 dilution of the filtrate of an 18 hour 37° C. shake culture of Aerobacter cloacae MB-2646 in nutrient broth containing 0.2% yeast extract. Table XIV, infra, indicates the percent inactivation of Antibiotic 810A, cephalothin, cephaloridine and cephalosporin C on Vibrio percolans (MB-1272) via this method:
Using the same assay procedure as described above, Table XV, infra, indicates the relative resistance of Antibiotic 810A to enzymatic inactivation by Aerobacter cloacae. The starting concentration is 250 μg./ml. Results are expressed in μg./ml.

Escherichia coli 236 = test: bacterial inactivation; details: four hours incubation; on B. subtilis (MB-964); 240 min
Experimental: (§2) These cultures are: Escherichia coli 236, Proteus morganii 251, Proteus morganii 356 and Proteus mirabilis 241. […] In conducting the assay individual mixtures of the organisms and one of the antibiotic were sampled after four hours incubation and assayed for residual antibiotic activity. The procedure is the same assay method as described above against Alcaligenes faecalis MB-9 and A. viscosus MB-12.

Proteus mirabilis 241 = test: bacterial inactivation
Experimental: as §2

Proteus morganii 251 = test: bacterial inactivation
Experimental: as §2

Proteus morganii 356 [6] = test: bacterial inactivation
Experimental: as §2

[7] = test system: gram-negative and gram-positive bacteria; details: cited from earlier work
penicillinase = details: cited from earlier work
[8] = test system: Alcaligenes faecalis (MB-9); test: bacterial inactivation, washed bacterial cells
Escherichia coli W-MB-60 = test: disc-plate bioassay of derivatives; format: cell-based; details: 100 γ/ml (Example 78)
From the text: (§3) Bioassay: The disc zone sizes in the following table are expressed in mm. for 100 γ/ml of antibiotic.
(§4) Bioassay: The disc zone sizes in the following table are expressed in mm. for equal concentrations of antibiotic.

[9] = test system: Pseudomonas stutzeri MB-1231; test: disc-plate bioassay of derivatives; format: cell-based; details: Stutzerimonas stutzeri, MB1231, equal concentrations, 100γ/ml (Example 71); read-out: disc zone size
From the text: as §3, §4

[10] = test system: Salmonella gallinarum MB-1287; test: disc-plate bioassay of derivatives; format: cell-based; details: 100γ/ml (Example 77)
From the text: as §4

[11] = urinary excretion and blood levels; format: in vivo, mice; details: mouse
[12] = isoelectric point and pH stability; format: physicochemical; details: for stability, low pH: pH 1.5
[13] = 2 Hour Incubation, assayed on V. percolans (MB-1272) plates
[14] = four hours incubation, on B. subtilis (MB-964), 240 min

For `COC(=Cc1ccc(OS(=O)(=O)O)cc1)C(=O)OCC1=C(C(=O)O)N2C(=O)[C@](NC(=O)CCC[C@@H](N)C(=O)O)(OC)[C@H]2SC1` [7β-(D-5-amino-5-carboxyvaleramido)-3-(α-methoxy-p-sulfooxycinnamoyloxymethyl)-7-methoxy-3-cephem-4-carboxylic acid], the “toxicity” value [1] was “low order of toxicity in mice”, the “bactericidal action / development of resistance” value [2] was “bactericidal” and the “protection against infections, oral” value [3] was “protects against infections due to Proteus vulgaris”. The “in vivo protection / activity” value [3] was “when administered subcutaneously, it is effective against a variety of gram-negative and gram-positive infections”, the resistance to cephalosporinases (cephalosporinases) was “greater resistance to cephalosporinases than cephalothin” and the “resistance to inactivation / enzymatic degradation” value (certain microorganisms) was “more resistant to enzymatic degradation than cephalosporin C”.
With `CO[C@@]1(NC(=O)CCC[C@@H](N)C(=O)O)C(=O)N2C(C(=O)O)=C(C)CS[C@@H]21` [7β-(D-5-amino-5-carboxyvaleramido)-3-methyl-7-methoxy-3-cephem-4-carboxylic acid] the Bioactivity (Vibrio percolans MB-1272; 50 ug/ml) was “Inactive at 50 ug/ml”.
For `O=C(Cc1cccs1)N[C@@H]1C(=O)N2C(C(=O)[O-])=C(C[n+]3ccccc3)CS[C@H]12` [Cephaloridine], the ED50 (Proteus morganii 356 [4]) was 9,270 μg, the “Percent Inactivation After Incubation With Cell-Free Extract” value ([5]; aerobacter cloacae cell-free extract, 2 h) was 96% and the protection [3] was “failed to protect at 4000 mg. × dose”.
For `CC(=O)OCC1=C(C(=O)O)N2C(=O)[C@@H](NC(=O)CCC[C@@H](N)C(=O)O)[C@H]2SC1` [Cephalosporin C], the “Percent Inactivation After Incubation With Cell-Free Extract” value [5, 13] was 96%, the percent inactivation (Escherichia coli 236) was over 99% and the percent inactivation (Proteus mirabilis 241; [14]) was 72%. The percent inactivation (Proteus morganii 251; [14]) was over 99%, the percent inactivation (Proteus morganii 356 [6]; [14]) was over 99% and the “antibacterial activity (background, words)” value [7] was “only moderately active”. The “resistance to / degradation by penicillinase” value (penicillinase) was “possesses an inherent resistance to penicillinase”, the “Percent Inactivation After Incubation With Washed Bacterial Cells” value ([8]; 3 Hour Incubation, assayed on V. percolans (MB-1272) plates) was over 99% and the “Percent Inactivation After Incubation With Washed Bacterial Cells” value ([8]; 3 Hours Incubation, assayed on B. subtilis (MB-964) plates) was over 99%.
With `CC(=O)OCC1=C(C(=O)O)N2C(=O)[C@@H](NC(=O)Cc3cccs3)[C@H]2SC1` [Cephalothin] the ED50 (Proteus morganii 356 [4]) was 20,000 μg, the “Percent Inactivation After Incubation With Cell-Free Extract” value [5, 13] was 66% and the protection [3] was “failed to protect at 4000 mg. × dose”.
In the case of `CO[C@@]1(NC(=O)CCC[C@@H](N)C(=O)O)C(=O)N2C(C(=O)O)=C(COC(N)=O)CS[C@@H]21` [Disodium Salt of 842A], the disc zone size (Escherichia coli W-MB-60) is reported as 18 mm, the zone of inhibition at 100 µg/mL [9] is reported as 21 mm and the disc zone size [10] is reported as 27 mm. For the same molecule, the zone of inhibition at 100 µg/mL (Vibrio percolans MB-1272; MB1272, read-out: disc zone size, 100γ/ml (Example 77)) was over 35 mm, the zone of inhibition at 100 µg/mL (Vibrio percolans MB-1272; MB1272, read-out: disc zone size, 100 γ/ml (Example 78)) was 23 mm and the zone of inhibition at 5 µg/mL (Vibrio percolans MB-1272; MB1272, read-out: disc zone size, Example 70, (5γ/ml) printed at end of line, head 100γ/ml) was 18 mm. For the same molecule, the zone of inhibition at 5 µg/mL (Vibrio percolans MB-1272; MB1272, read-out: disc zone size, equal concentrations, 5γ/ml (Example 71)) was 18 mm.
In the case of `CO[C@@]1(NC(=O)CCC[C@@H](N)C(=O)O)C(=O)N2C(C(=O)O)=C(COC(N)=O)CS[C@@H]21` [Example 842A], the percent inactivation (Escherichia coli 236) is reported as 38%, the percent inactivation (Proteus mirabilis 241; bacterial cells, 4 h) is reported as 5% and the percent inactivation (Proteus morganii 251; bacterial cells, 4 h) is reported as 80%. The percent inactivation (Proteus morganii 356 [6]; bacterial cells, 4 h) was 69%, the “blood levels / excretion” value ([11]; in vivo) was “produces rapid blood levels; also recorded: rapidly excreted in the urine” and the dose excreted at 6 h ([11]; urine, within six hours after administration, read-out: eliminated in the urine) was about 100%. The “stability, high pH” value [12] was “unstable above pH 7”, the “stability, high pH” value ([12]; listed as Antibiotic 842A) was “unstable above pH 9.0” and the “stability, low pH” value [12] was “stable at pH 1.5”. For the same molecule, the “stability, low pH” value ([12]; listed as Antibiotic 842A) was “relatively stable at pH 1.5”, the “antibacterial activity” value [2] was “exhibits activity against Salmonella schottmuelleri 3010, S. gallinarum and S. typhosa” and the “bactericidal action / development of resistance” value [2] was “resistance to it develops slowly and it is bactericidal”. The “antibacterial activity” value ([2]; listed as Antibiotic 842A) was “inhibits the growth of the following gram-negative bacteria: Escherichia coli, Proteus vulgaris, Alcaligenes faecalis, Brucella bronchiseptica, Salmonella gallinarum, Vibrio percolans and Xanthomonas vesicatoria; also recorded: inhibits the growth of the following gram-positive bacteria: Staphylococcus aureus, Sarcina lutea and Bacillus subtilis; also recorded: enhanced activity against gram-negative microorganisms”, the “protection against infections, oral” value [3] was “protects against infections due to Paracolobactrum arizoniae 3270, Proteus vulgaris 1810, and Salmonella schottmuelleri 3010” and the “in vivo protection / activity” value ([3]; listed as Antibiotic 842A) was “protects against infection with three species of Proteus, two of Salmonella, one strain of Escherichia coli, two of Klebsiella and also against Paracolobactrum arizoniae, Aerobacter aerogenes, Pasteurella multocida and Diplococcus pneumoniae E400; also recorded: exhibits a significant in vivo gram-negative effect with a potency which, in general, is greater than cephalothin”. For the same molecule, the “resistance to inactivation / enzymatic degradation” value (certain microorganisms) was “more resistant to enzymatic degradation than cephalosporin C”, the “resistance to inactivation / enzymatic degradation” value (certain microorganisms; listed as Antibiotic 842A) was “more stable than the latter against certain microorganisms; also recorded: more resistant than cephalosporin C to inactivation by A. faecalis, A. viscosus, Escherichia coli 236, Proteus morganii 251, Proteus morganii 236 and Proteus mirabilis 241” and the “Percent Inactivation After Incubation With Washed Bacterial Cells” value ([8]; 4 Hour Incubation, assayed on B. subtilis (MB-964) plates) was 0%.
For `CC1(C)S[C@@H]2[C@H](NC(=O)Cc3ccccc3)C(=O)N2[C@H]1C(=O)O` [Penicillin G], the “resistance to / degradation by penicillinase” value (penicillinase) is listed as “in the presence of penicillinase it is degraded to a form which is ineffective against most pathogens”.
